Experiment: (§1) The drug is tested on WLS-220 corresponding to human gut metagenome with ENA study accession number: PRJEB37062 and ENA sample accession number: ERS12561769 for biotransformation under anaerobic condition. The drug concentrations were measured over 9 timepoints collected between 0 and 24 hours of incubation by liquid-chromatography-coupled mass spectrometry (LC–MS)
Settings: 2 µM
Also: call rule not given here.

Bacterial Biotransformation | Compound
Compound metabolized | CC(C)OC(=O)C(C)(C)Oc1ccc(C(=O)c2ccc(Cl)cc2)cc1 [FENOFIBRATE]
Compound metabolized | CCCCCOC(=O)Nc1nc(=O)n([C@@H]2O[C@H](C)[C@@H](O)[C@H]2O)cc1F [CAPECITABINE]

Experiment: as §1, with “WLS-052” for “WLS-220”, “ERS12561747” for “ERS12561769”
Settings: 2 µM

Bacterial Biotransformation | Compound
Compound NOT metabolized | CC(C)OC(=O)C(C)(C)Oc1ccc(C(=O)c2ccc(Cl)cc2)cc1 [FENOFIBRATE]
Compound metabolized | CCCCCOC(=O)Nc1nc(=O)n([C@@H]2O[C@H](C)[C@@H](O)[C@H]2O)cc1F [CAPECITABINE]

Settings: human gut metagenome, 24 h, 2 µM

Bacterial Biotransformation | Compound
Compound metabolized | CC(C)OC(=O)C(C)(C)Oc1ccc(C(=O)c2ccc(Cl)cc2)cc1 [FENOFIBRATE]
Compound metabolized | CCCCCOC(=O)Nc1nc(=O)n([C@@H]2O[C@H](C)[C@@H](O)[C@H]2O)cc1F [CAPECITABINE]

Settings: human gut metagenome, 24 h, 2 µM
Remark: another data set of the same source

Bacterial Biotransformation | Compound
Compound NOT metabolized | CC(C)OC(=O)C(C)(C)Oc1ccc(C(=O)c2ccc(Cl)cc2)cc1 [FENOFIBRATE]
Compound metabolized | CCCCCOC(=O)Nc1nc(=O)n([C@@H]2O[C@H](C)[C@@H](O)[C@H]2O)cc1F [CAPECITABINE]

Settings: human gut metagenome, 24 h, 2 µM
Remark: another data set of the same source

Bacterial Biotransformation | Compound
Compound metabolized | CC(C)OC(=O)C(C)(C)Oc1ccc(C(=O)c2ccc(Cl)cc2)cc1 [FENOFIBRATE]
Compound metabolized | CCCCCOC(=O)Nc1nc(=O)n([C@@H]2O[C@H](C)[C@@H](O)[C@H]2O)cc1F [CAPECITABINE]

Settings: human gut metagenome, 24 h, 2 µM
Remark: another data set of the same source

Bacterial Biotransformation | Compound
Compound NOT metabolized | CC(C)OC(=O)C(C)(C)Oc1ccc(C(=O)c2ccc(Cl)cc2)cc1 [FENOFIBRATE]
Compound metabolized | CCCCCOC(=O)Nc1nc(=O)n([C@@H]2O[C@H](C)[C@@H](O)[C@H]2O)cc1F [CAPECITABINE]

Settings: human gut metagenome, 24 h, 2 µM
Remark: another data set of the same source

Bacterial Biotransformation | Compound
Compound metabolized | CC(C)OC(=O)C(C)(C)Oc1ccc(C(=O)c2ccc(Cl)cc2)cc1 [FENOFIBRATE]
Compound metabolized | CCCCCOC(=O)Nc1nc(=O)n([C@@H]2O[C@H](C)[C@@H](O)[C@H]2O)cc1F [CAPECITABINE]

Experiment: as §1, with “Z-006” for “WLS-220”, “mouse” for “human”, “ERS12561806” for “ERS12561769”
Settings: 2 µM

Bacterial Biotransformation | Compound
Compound metabolized | CC(C)OC(=O)C(C)(C)Oc1ccc(C(=O)c2ccc(Cl)cc2)cc1 [FENOFIBRATE]
Compound NOT metabolized | CCCCCOC(=O)Nc1nc(=O)n([C@@H]2O[C@H](C)[C@@H](O)[C@H]2O)cc1F [CAPECITABINE]

Settings: human gut metagenome, 24 h, 2 µM
Remark: another data set of the same source

Bacterial Biotransformation | Compound
Compound metabolized | CC(C)OC(=O)C(C)(C)Oc1ccc(C(=O)c2ccc(Cl)cc2)cc1 [FENOFIBRATE]
Compound metabolized | CCCCCOC(=O)Nc1nc(=O)n([C@@H]2O[C@H](C)[C@@H](O)[C@H]2O)cc1F [CAPECITABINE]

Settings: human gut metagenome, 24 h, 2 µM
Remark: another data set of the same source

Bacterial Biotransformation | Compound
Compound NOT metabolized | CC(C)OC(=O)C(C)(C)Oc1ccc(C(=O)c2ccc(Cl)cc2)cc1 [FENOFIBRATE]
Compound metabolized | CCCCCOC(=O)Nc1nc(=O)n([C@@H]2O[C@H](C)[C@@H](O)[C@H]2O)cc1F [CAPECITABINE]

Experiment: as §1, with “WLS-350” for “WLS-220”, “ERS12561789” for “ERS12561769”
Settings: 2 µM

Bacterial Biotransformation | Compound
Compound NOT metabolized | CC(C)OC(=O)C(C)(C)Oc1ccc(C(=O)c2ccc(Cl)cc2)cc1 [FENOFIBRATE]
Compound metabolized | CCCCCOC(=O)Nc1nc(=O)n([C@@H]2O[C@H](C)[C@@H](O)[C@H]2O)cc1F [CAPECITABINE]

Experiment: as §1, with “Z-005” for “WLS-220”, “to” for “to human gut”, “ERS12561805” for “ERS12561769”
Settings: 2 µM

Bacterial Biotransformation | Compound
Compound metabolized | CC(C)OC(=O)C(C)(C)Oc1ccc(C(=O)c2ccc(Cl)cc2)cc1 [FENOFIBRATE]
Compound metabolized | CCCCCOC(=O)Nc1nc(=O)n([C@@H]2O[C@H](C)[C@@H](O)[C@H]2O)cc1F [CAPECITABINE]

Settings: human gut metagenome, 24 h, 2 µM
Remark: another data set of the same source

Bacterial Biotransformation | Compound
Compound NOT metabolized | CC(C)OC(=O)C(C)(C)Oc1ccc(C(=O)c2ccc(Cl)cc2)cc1 [FENOFIBRATE]
Compound metabolized | CCCCCOC(=O)Nc1nc(=O)n([C@@H]2O[C@H](C)[C@@H](O)[C@H]2O)cc1F [CAPECITABINE]

Settings: human gut metagenome, 24 h, 2 µM
Remark: another data set of the same source

Bacterial Biotransformation | Compound
Compound metabolized | CC(C)OC(=O)C(C)(C)Oc1ccc(C(=O)c2ccc(Cl)cc2)cc1 [FENOFIBRATE]
Compound metabolized | CCCCCOC(=O)Nc1nc(=O)n([C@@H]2O[C@H](C)[C@@H](O)[C@H]2O)cc1F [CAPECITABINE]

Experiment: as §1, with “Z-022” for “WLS-220”, “mouse” for “human”, “ERS12561821” for “ERS12561769”
Settings: 2 µM

Bacterial Biotransformation | Compound
Compound NOT metabolized | CC(C)OC(=O)C(C)(C)Oc1ccc(C(=O)c2ccc(Cl)cc2)cc1 [FENOFIBRATE]
Compound NOT metabolized | CCCCCOC(=O)Nc1nc(=O)n([C@@H]2O[C@H](C)[C@@H](O)[C@H]2O)cc1F [CAPECITABINE]

Experiment: as §1, with “WLS-069” for “WLS-220”, “ERS12561748” for “ERS12561769”
Settings: 2 µM

Bacterial Biotransformation | Compound
Compound NOT metabolized | CC(C)OC(=O)C(C)(C)Oc1ccc(C(=O)c2ccc(Cl)cc2)cc1 [FENOFIBRATE]
Compound metabolized | CCCCCOC(=O)Nc1nc(=O)n([C@@H]2O[C@H](C)[C@@H](O)[C@H]2O)cc1F [CAPECITABINE]

Experiment: as §1, with “Z-004” for “WLS-220”, “to” for “to human gut”, “ERS12561804” for “ERS12561769”
Settings: 2 µM

Bacterial Biotransformation | Compound
Compound metabolized | CC(C)OC(=O)C(C)(C)Oc1ccc(C(=O)c2ccc(Cl)cc2)cc1 [FENOFIBRATE]
Compound metabolized | CCCCCOC(=O)Nc1nc(=O)n([C@@H]2O[C@H](C)[C@@H](O)[C@H]2O)cc1F [CAPECITABINE]

Experiment: as §1, with “Z-017” for “WLS-220”, “mouse” for “human”, “ERS12561816” for “ERS12561769”
Settings: 2 µM

Bacterial Biotransformation | Compound
Compound metabolized | CC(C)OC(=O)C(C)(C)Oc1ccc(C(=O)c2ccc(Cl)cc2)cc1 [FENOFIBRATE]
Compound metabolized | CCCCCOC(=O)Nc1nc(=O)n([C@@H]2O[C@H](C)[C@@H](O)[C@H]2O)cc1F [CAPECITABINE]

Settings: human gut metagenome, 24 h, 2 µM
Remark: another data set of the same source

Bacterial Biotransformation | Compound
Compound metabolized | CC(C)OC(=O)C(C)(C)Oc1ccc(C(=O)c2ccc(Cl)cc2)cc1 [FENOFIBRATE]
Compound metabolized | CCCCCOC(=O)Nc1nc(=O)n([C@@H]2O[C@H](C)[C@@H](O)[C@H]2O)cc1F [CAPECITABINE]

Experiment: as §1, with “Z-029” for “WLS-220”, “rat” for “human”, “ERS12561828” for “ERS12561769”
Settings: 2 µM

Bacterial Biotransformation | Compound
Compound NOT metabolized | CC(C)OC(=O)C(C)(C)Oc1ccc(C(=O)c2ccc(Cl)cc2)cc1 [FENOFIBRATE]
Compound metabolized | CCCCCOC(=O)Nc1nc(=O)n([C@@H]2O[C@H](C)[C@@H](O)[C@H]2O)cc1F [CAPECITABINE]

— ChEMBL document CHEMBL5724914, “Linking interpersonal differences in gut microbiota composition and drug biotransformation activity” (2024)
